These results are taken from EP4660195A1, “CRYSTALLINE FORMS OF AVATROMBOPAG MALEATE AND PREPARATION THEREOF” (NOUCOR HEALTH S.A., priority 2024, dated 2025).

The nature of data set [1]: Stability of screened solid forms with time. It is filed as physicochemical. As for the experimental part:
Form C9 was only exclusively obtained using chloroform as a solvent, which solvent is not suitable for industrial manufacturing of a drug according to regulatory requirements. These solid forms are consequently not suitable for industrial manufacturing of a drug.
Amorphous Avatrombopag maleate (200 mg) was suspended in methanol (10 mL) at room temperature, and stirred for 15 hours, filtered and dried in the air. […] After 24 hours, the solid was analyzed by PXRD again - only form beta was observed. ^1H NMR analysis of said solid form indicated the presence of methanol in the crystalline form. In order to remove the methanol to obtain an anhydrous form, form beta was dried in vacuum for 2 hours at 70°C. After said desolvation step, crystalline forma alpha was obtained.

Data set [2] can be described thus: Hygroscopicity by Dynamic Vapor Sorption analysis. It is filed as physicochemical. To be noted: for gain of weight by absorption of water: 25°C. As for the experimental part:
Dynamic Vapor Sorption Analysis (DVS) were performed in a Mettler Toledo TGA / DSC 1 LF instrument equipped with a LF SDTA FRS2 sensor and coupled with a Modular Humidity Generator MHG 32. Data collection and evaluation was done with STARe software. Measurement conditions: The samples were analysed following a humidity cycle from 20%RH up to 80%RH, down to 3%RH, up to 90 and down to 3%RH in 10% steps of 30 minutes at 25°C. Sample preparation: Approximately 5-10 mg of sample were weighed (using a MX5 Mettler Toledo microbalance) into 150 µL platinum crucibles without lid.

The nature of data set [3]: Solid form stability in climatic chamber at 40°C and 75% RH, monitored by PXRD. It is filed as physicochemical. To be noted: 40°C and 75% RH, 1, 5 and 13 days. From the text: (§1) The Powder X-Ray diffraction (PXRD) patterns were acquired on a Bruker D8 Advance Series 2Theta/Theta powder diffraction system using CuKα1-radiation operated at 40 kV and 40 mA in transmission geometry. The system is equipped with a VÅNTEC-1 single photon counting PSD, a Germanium monochromator, a ninety positions auto changer sample stage, fixed divergence slits and a radial soller. Programs used: Data collection with DIFFRAC plus XRD Commander V.2.5.1, and evaluation with High Score Plus 4.9 (Malvern PANalytical B.V.). Measurement conditions: The samples were measured in a range from 4 to 40° in 2θ in a 6 or 30 minutes measurement using an angular step of 0.05° and a time per step of […]. Sample preparation: 20 mg of non-manipulated sample were prepared in standard sample holders using two foils of polyacetate
A sample of Crystalline Form Alpha of Avatrombopag maleate was stored for 13 days in a climatic chamber at 40°C and 75% RH, and the solid form was monitored by PXRD.

Data set [4] is described as follows: Thermal stability at 90 °C for 24 hours, PXRD and 1H NMR. To be noted: open or closed vial. The data set is classed as physicochemical.
Excerpt: as §1
Proton nuclear magnetic resonance analyses (^1H NMR spectroscopy) were recorded in a Bruker 300 NMR spectrometer, equipped with a z gradient 5 mm BBO (Broadband Observe) probe with ATM and an automatic autosampler. Measurement conditions: The samples were analysed at room temperature. Sample preparation: Approximately 2-5 mg of sample were dissolved in 0.7 mL of deuterated solvent (dimethylsulfoxide-d6).

The conditions of data set [5]: in vivo; cited from earlier work.
The conditions of data set [6]: pH 1 to 11; cited from earlier work.

Structures can show the parent of a compound that is named as a salt.

Take `O=C(Nc1nc(-c2cc(Cl)cs2)c(N2CCN(C3CCCCC3)CC2)s1)c1cnc(N2CCC(C(=O)O)CC2)c(Cl)c1.O=C(O)/C=C\C(=O)O` [Form C22, Avatrombopag maleate]: in data set [1] (listed as C22), the “stability of the solid form with time” value is “lose crystallinity with time”.

Take `O=C(Nc1nc(-c2cc(Cl)cs2)c(N2CCN(C3CCCCC3)CC2)s1)c1cnc(N2CCC(C(=O)O)CC2)c(Cl)c1` [Form alpha, Avatrombopag maleate]: the “solid form (PXRD) before and after DVS analysis” value in data set [2] (exposure to relative humidity as high as 90%) is given as “preserves its solid form”. The results for the “gain of weight by absorption of water” value in data set [2] (relative humidity of 70%), in data set [2] (relative humidity of 80%) and in data set [2] (relative humidity of 90%) were “below 0.3%”, “below 0.4%” and “below 0.7%”, respectively. The “solid form (PXRD) after storage” value in data set [3] is reported as “preserves its solid form”. The “solid form (PXRD, 1H NMR) after heating” value in data set [4] was “preserves its solid form”.

Turning to `O=C(Nc1nc(-c2cc(Cl)cs2)c(N2CCN(C3CCCCC3)CC2)s1)c1cnc(N2CCC(C(=O)O)CC2)c(Cl)c1.O=C(O)/C=C\C(=O)O` [Form C5, Avatrombopag maleate], in data set [1] (listed as C5), the “stability of the solid form with time” value is on record as “lose crystallinity with time”.

Turning to `O=C(Nc1nc(-c2cc(Cl)cs2)c(N2CCN(C3CCCCC3)CC2)s1)c1cnc(N2CCC(C(=O)O)CC2)c(Cl)c1.O=C(O)/C=C\C(=O)O` [Form A, Avatrombopag maleate], the oral absorption entry in data set [5] is on record as “excellent oral absorption”.

Turning to `O=C(Nc1nc(-c2cc(Cl)cs2)c(N2CCN(C3CCCCC3)CC2)s1)c1cnc(N2CCC(C(=O)O)CC2)c(Cl)c1.O=C(O)/C=C\C(=O)O` [Form C11, Avatrombopag maleate], the “stability of the solid form with time” value in data set [1] (listed as C11) is “unstable”.

Turning to `O=C(Nc1nc(-c2cc(Cl)cs2)c(N2CCN(C3CCCCC3)CC2)s1)c1cnc(N2CCC(C(=O)O)CC2)c(Cl)c1.O=C(O)/C=C\C(=O)O` [Form gamma, Avatrombopag maleate], in data set [1] (listed as form gamma), the “stability of the solid form with time” value is given as “spontaneously converted into form beta with time”.

`O=C(Nc1nc(-c2cc(Cl)cs2)c(N2CCN(C3CCCCC3)CC2)s1)c1cnc(N2CCC(C(=O)O)CC2)c(Cl)c1` [Form C, Avatrombopag maleate]: the oral absorption entry in data set [5] is “excellent oral absorption”.

On to `O=C(Nc1nc(-c2cc(Cl)cs2)c(N2CCN(C3CCCCC3)CC2)s1)c1cnc(N2CCC(C(=O)O)CC2)c(Cl)c1` [Form B, Avatrombopag maleate], for which the oral absorption result in data set [5] is recorded as “inferior oral absorption”.

Consider `O=C(Nc1nc(-c2cc(Cl)cs2)c(N2CCN(C3CCCCC3)CC2)s1)c1cnc(N2CCC(C(=O)O)CC2)c(Cl)c1.O=C(O)/C=C\C(=O)O` [Avatrombopag maleate], for which the aqueous solubility entry in data set [6] was “practically insoluble”.
